# In paper PMC5517430, “2,3,7,8-Tetrachlorodibenzo-p-dioxin (TCDD)-elicited effects on bile acid homeostasis: Alterations in biosynthesis, enterohepatic circulation, and microbial metabolism” (Scientific Reports, 2017):
# Key:
# hepatic cholesterol = system: hepatic cholesterol; parameters: method as in PMID 28238261; conditions: male C57BL/6 mice, 30 µg/kg TCDD every 4 d for 28 d, cited from earlier work
# Cyp39a1 = experiment: Hepatic RNA-Seq differential gene expression (fold change, P1(t), ED50, BMD, BMDL); format: in vivo, mouse; conditions: C57BL/6, mouse, liver, oral; male mice, TCDD every 4 d for 28 d
# Experimental: (§1) Frozen ileal epithelium scrapings and liver samples were homogenized in TRIzol (Ambion, Waltham, MA) using a Mixer Mill 300 tissue homogenizer (Retsch, Germany) and total RNA was isolated as previously described. RNA was quantified using a Nano-drop spectrophotometer (Thermo Scientific, Wilmington, DE) at 260 nm, and purity was assessed using the A260/A280 ratio and the Caliper LabChip GX (Perkin Elmer, Waltham, MA).
# (§2) Dose-dependent gene expression was examined using RNA-Seq performed at the MSU Research Technology Support Facility (RTSF) Genomics Core (rtsf.natsci.msu.edu/genomics). Ileal libraries from three independent biological replicates (n = 3) were prepared using the Ovation Mouse RNA-Seq System 1–16 sample preparation kit (NuGen, San Carlos, CA), with an additional DNase step. Libraries were quantified and sequenced as previously described, using a read depth of ~30 M per sample[33], [67]. Quality was determined using FASTQC v0.11.3 and adaptor sequences were removed using Trimmomatic v0.33. Reads were mapped to the mouse reference genome (GRCm38 release 81) using Bowtie2 v2.2.6 and TopHat2 v2.1.0. Alignments were converted to SAM format using SAMTools v1.2.0. For TCDD-mediated differential gene expression, fold changes were calculated relative to vehicle controls. Hepatic RNA-Seq analysis was previously published. Genes were considered differentially expressed if |fold change| ≥ 1.5 and statistical P1(t) value ≥ 0.8 at one or more doses. RNA-Seq datasets for the ileal epithelium and liver were deposited in the Gene Expression Omnibus (GEO; accession number GSE89430 and GSE87519, respectively). The RNA-Seq results (fold changes, P1(t) values) for each gene discussed in the manuscript have been compiled in Supplementary Table S1. […] Estimation of benchmark dose (BMD) and BMD lower confidence limit (BMDL) was performed using BMDExpress[69] as previously described, and has been included in Supplementary Table S1.
# Slc6a6 = experiment: as above; format: in vivo, mouse; conditions: C57BL/6, mouse, liver, oral; male mice, TCDD every 4 d for 28 d
# Experimental: as §1, §2
# [1] = system: gallbladder of male C57BL/6 mice; experiment: Gallbladder volume (micro-caliper, ellipsoid); format: in vivo, mouse; conditions: 30 µg/kg TCDD every 4 d for 28 d
# Experimental: At 25d after the initial dose (PND53), fecal pellets from the previous 24 hours (h) were collected from each cage (4 mice per cage) and stored at −80 °C. At 28d after the initial exposure (PND56), mice (fasted for 6 h) were weighed and blood was collected from the submandibular vein prior to cervical dislocation. The gallbladder length, width, and depth were measured using a micro-caliper. Its volume was calculated assuming an ellipsoid shape: volume (µL) = length (mm) × width (mm) × depth (mm) × π/6[63], [64]. The distal ileum (10 cm section extending from the caecum toward the jejunum) was removed, flushed with Ca^2+/Mg^2+-free phosphate buffered saline (PBS; Sigma), and opened longitudinally. The epithelial lining was scraped into a vial containing TRIzol (Invitrogen, Carlsbad, CA), frozen in liquid nitrogen, and stored at −80 °C. Liver, gonadal white adipose tissue (gWAT), and brown adipose tissue were removed, weighed, frozen in liquid nitrogen, and stored at −80 °C. Serum alkaline phosphatase (ALP) activity was determined using a commercial kit (Pointe Scientific, Canton, MI).
compound,measurement,setting,value
"Clc1cc2c(cc1Cl)Oc1cc(Cl)c(Cl)cc1O2 [TCDD, 2,3,7,8-tetrachlorodibenzo-p-dioxin]","Hepatic cholesterol ester level, fold increase",hepatic cholesterol,11.3 fold
same,"Hepatic cholesterol level, fold increase",hepatic cholesterol; not confirmed by high resolution MS/MS,9.0 fold
same,fold induction at 28 d,Cyp39a1,2.1
same,fold induction at 28 d,Slc6a6,1.8
same,"Gallbladder volume, fold increase compared to controls",[1],2.5 fold
